Counter-ions that a name gives are not always drawn.
Columns and labels:
Dop1R2 [1] = biological target: T1, Dop1R2 (Drosophila melanogaster, UniProt Q24563); test: CRE-luciferase reporter assay in transfected HEK293 cells; type: cell-based
T1 construct: receptor cDNA in pcDNA1.1, transiently expressed in HEK293 with CRE-luciferase reporter
T1 sequence (Q24563 1-539): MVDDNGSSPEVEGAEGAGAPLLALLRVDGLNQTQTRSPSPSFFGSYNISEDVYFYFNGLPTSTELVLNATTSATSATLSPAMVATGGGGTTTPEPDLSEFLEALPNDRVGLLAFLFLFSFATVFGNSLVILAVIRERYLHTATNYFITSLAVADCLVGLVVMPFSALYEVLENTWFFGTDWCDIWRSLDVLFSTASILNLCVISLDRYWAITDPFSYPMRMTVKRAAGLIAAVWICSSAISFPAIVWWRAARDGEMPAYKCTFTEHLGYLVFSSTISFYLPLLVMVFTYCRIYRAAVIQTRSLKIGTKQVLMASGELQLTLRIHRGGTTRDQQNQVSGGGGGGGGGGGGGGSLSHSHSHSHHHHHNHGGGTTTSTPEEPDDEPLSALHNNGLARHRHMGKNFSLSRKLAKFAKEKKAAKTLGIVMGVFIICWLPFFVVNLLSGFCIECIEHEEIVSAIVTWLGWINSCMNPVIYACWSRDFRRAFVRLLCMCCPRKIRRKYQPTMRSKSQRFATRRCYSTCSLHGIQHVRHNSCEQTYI

Dop1R2 [2] = biological target: T1, Dop1R2; test: as above; type: cell-based; remark: listed apart in the source

| SMILES | EC50 (Dop1R2 [1]) | IC50 (Dop1R2 [2]) |
| --- | --- | --- |
| NCCc1ccc(O)c(O)c1 [dopamine hydrochloride] | 270 nM |  |
| OCCN1CCN(CCC=C2c3ccccc3Sc3ccc(C(F)(F)F)cc32)CC1 [flupenthixol dihydrochloride] |  | 260 nM |

— article PMC4868058, “A critical role for the Drosophila dopamine D1-like receptor Dop1R2 at the onset of metamorphosis” (BMC Developmental Biology, 2016)
